Among the data in patent publication US9902703B2, “Somatostatin modulators and uses thereof” (Crinetics Pharmaceuticals, Inc., priority 2015, dated 2018) are EC50 values, retold here.

T1 sequence (P30874 whole entry): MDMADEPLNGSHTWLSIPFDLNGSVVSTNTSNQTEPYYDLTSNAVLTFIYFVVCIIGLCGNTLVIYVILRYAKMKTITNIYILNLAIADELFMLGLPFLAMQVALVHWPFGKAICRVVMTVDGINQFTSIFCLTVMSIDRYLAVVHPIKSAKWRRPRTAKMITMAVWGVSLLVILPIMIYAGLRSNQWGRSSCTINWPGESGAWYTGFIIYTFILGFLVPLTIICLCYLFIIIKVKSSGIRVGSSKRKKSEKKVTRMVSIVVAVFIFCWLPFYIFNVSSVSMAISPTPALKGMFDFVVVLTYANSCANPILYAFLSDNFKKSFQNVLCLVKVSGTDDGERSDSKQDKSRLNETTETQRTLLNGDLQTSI

This experiment concerns the target T1, human somatostatin receptor subtype 2 (Homo sapiens, UniProt P30874).
T1 construct: expressed in transfected cells; host or cells: CHO (Chinese hamster ovary) cells, G-418 selected
In words: cAMP assay (functional assay for SSTR2 agonists). The class given is cell-based. The following applies: CHO cells expressing human SSTR2; intracellular cAMP with forskolin, HTRF; read-out: SSTR2a EC50. The procedure, abridged:
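CHO cells expressing human SSTR2 were treated with compound for 15 min at 37° C in buffer with forskolin, 0.2 mM IBMX and 0.1% BSA. Intracellular cAMP was read by HTRF after 1-24 h lysis at room temperature, and EC50 came from cAMP versus compound concentration curves.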
On the technique in general: Cyclic AMP is a second messenger, typically raised through Gs and lowered through Gi signalling.
With `Cc1cc(Cl)cc(N2C=Nc3cc(C)c(-c4cccc(C(F)(F)F)c4)cc3C2C(=O)N(C)C[C@@H]2CCCN2)c1` (stereo partly drawn) [Compound 1-43, 3-(3-chloro-5-methylphenyl)-N,7-dimethyl-N-[(2S)-pyrrolidin-2-ylmethyl]-6-[3-(trifluoromethyl)phenyl]-3,4-dihydroquinazoline-4-carboxamide], the EC50 (commonly the midpoint of the concentration-response curve) is < 100 nM.
Turning to `Cc1cc(C)cc(N2C=Nc3cc(Cl)c(-c4cccc(O)c4)cc3C2C(=O)NCCN)c1` (stereo not drawn) [Compound 1-3, N-(2-aminoethyl)-7-chloro-3-(3,5-dimethylphenyl)-6-(3-hydroxyphenyl)-3,4-dihydroquinazoline-4-carboxamide], the 50% effective concentration (EC50) lay within 1000 to 10000 nM.
For `Cc1cc(Cl)cc(N2C=Nc3cc(C)c(-c4cccc(O)c4C#N)cc3C2C(=O)N(C)C[C@@H]2CCCN2)c1` (stereo partly drawn) [Compound 2-31, 3-(3-chloro-5-methylphenyl)-6-(2-cyano-3-hydroxyphenyl)-N,7-dimethyl-N-[(2S)-pyrrolidin-2-ylmethyl]-3,4-dihydroquinazoline-4-carboxamide], the EC50 is 100 to 1000 nM.
Take `Cc1cc(C)cc(N2C=Nc3cc(Cl)c(-c4cccc(O)c4)cc3C2C(=O)N(C)C[C@H](C)N)c1` (stereo partly drawn) [Compound 1-4, N-[(2S)-2-aminopropyl]-7-chloro-3-(3,5-dimethylphenyl)-6-(3-hydroxyphenyl)-N-methyl-3,4-dihydroquinazoline-4-carboxamide]: the concentration giving a half-maximal response (EC50) is < 100 nM.
As for `COc1cc(F)cc(-c2cc3c(cc2C)N=CN(c2cc(C)cc(Cl)c2)C3C(=O)N(C)C[C@@H]2CCCN2)c1` (stereo partly drawn) [Compound 2-35, 3-(3-chloro-5-methylphenyl)-6-(3-fluoro-5-methoxyphenyl)-N,7-dimethyl-N-[(2S)-pyrrolidin-2-ylmethyl]-3,4-dihydroquinazoline-4-carboxamide], the figure is < 100 nM; as for `CC[C@H](N)CN(C)C(=O)C1c2cc(-c3c(F)ccc(O)c3F)c(C)cc2N=CN1c1cc(C)cc(C)c1` (stereo partly drawn) [Compound 1-15, N-[(2S)-2-aminobutyl]-6-(2,6-difluoro-3-hydroxyphenyl)-3-(3,5-dimethylphenyl)-N,7-dimethyl-3,4-dihydroquinazoline-4-carboxamide], < 100 nM.
For the molecule `Cc1cc(Cl)cc(N2C=Nc3cc(C)c(-c4cccc(O)c4)cc3C2C(=O)N(C)C[C@@H]2CCCN2)c1` (stereo partly drawn) [Compound 1-17, 3-(3-chloro-5-methylphenyl)-6-(3-hydroxyphenyl)-N,7-dimethyl-N-[(2S)-pyrrolidin-2-ylmethyl]-3,4-dihydroquinazoline-4-carboxamide], the EC50 is < 100 nM.
As for `Cc1cc(Cl)cc(N2C=Nc3cc(C)c(-c4cccc(NS(C)(=O)=O)c4)cc3C2C(=O)N(C)C[C@@H]2CCCN2)c1` (stereo partly drawn) [Compound 2-6, 3-(3-chloro-5-methylphenyl)-6-(3-methanesulfonamidophenyl)-N,7-dimethyl-N-[(2S)-pyrrolidin-2-ylmethyl]-3,4-dihydroquinazoline-4-carboxamide], the figure is 100 to 1000 nM.
Take `Cc1cc(F)cc(N2C=Nc3cc(C)c(-c4cccc(O)c4)cc3C2C(=O)N(C)C[C@@H]2CCCN2)c1` (stereo partly drawn) [Compound 1-25, 3-(3-fluoro-5-methylphenyl)-6-(3-hydroxyphenyl)-N,7-dimethyl-N-[(2S)-pyrrolidin-2-ylmethyl]-3,4-dihydroquinazoline-4-carboxamide]: the EC50 was < 100 nM.
